# Results as given in US20230000876A1, “TREATING CANCERS WITH A CYCLIN-DEPENDENT KINASE INHIBITOR” (Nuvation Bio Inc., priority 2021, published 2023).
# Where two headings read alike, the source gives them in different places.
# Assays:
# [1] = system: MCF-7 tumors; format: in vivo; conditions: for T/C / TGI: PG-D37
# Method: The in vivo anti-tumor efficacy of the compound of formula (I) either alone or in combination with fulvestrant on MCF-7 breast tumor model on female Balb/c nude mice was assessed. MCF-7 cells are a breast cancer cell line that is HR+HER2−. See Booms et al., (2019) Cancer Epidemiol Biomarkers Prev 28(10); 1735-1745, which is hereby incorporated by reference.
# The study was in two parts. The first part was designed to measure tumor growth inhibition (TGI). The second part was used to measure pharmacokinetic and pharmacodynamic (PKPD) parameters. In the studies, the compound of formula (I) was dosed orally (po) and fulvestrant was dosed subcutaneously. […]
# The MCF-7 tumor cells were maintained in vitro in MEM supplemented with 10% heat inactivated fetal bovine serum at 37° C. in an atmosphere of 5% CO2 in air. The tumor cells were routinely subcultured twice weekly. The cells growing in an exponential growth phase were harvested and counted for tumor inoculation.
# Each mouse was inoculated subcutaneously at the right flank with MCF-7 (10*10^6) cells in 0.2 mL of PBS mixed with Matrigel (50:50) for tumor development. 17β-Estradiol (0.36 mg, 60-day release) pellets (Innovative Research of America Cat. No.: SE-121, pellet size: 3.0 mm) were implanted 2 days before cell inoculation.
# In TGI part, the treatments was started on day 7 after cell inoculation when the average tumor volume reaches 173 mm^3. 72 mice were selected and assigned into 9 groups. The testing articles were administrated to the mice according to Table 1.
# For TGI part, the major endpoint was to see if the tumor growth could be delayed or mice could be cured. Tumor size was measured twice weekly in two dimensions using a caliper, and the volume was expressed in mm^3 using the formula: V=0.5 a×b^2 where a and b are the long and short diameters of the tumor, respectively. The tumor sizes are then used for the calculation of T/C and TGI values.
# The T/C value (in percent) is an indication of antitumor effectiveness; T and C are the mean volume of the treated and control groups, respectively, on a given day.
# TGI was calculated for each group using the formula: TGI (%)=[1−(Ti−T0)/(Vi−V0)]×100; Ti is the average tumor volume of a treatment group on PG-Di, T0 is the average tumor volume of the treatment group on the day of treatment start, Vi is the average tumor volume of the vehicle control group on the same day with Ti, and V0 is the average tumor volume of the vehicle group on the day of treatment start.
# For comparison among of tumor volume of groups 2-9 and group 1, a one-way ANOVA was performed. All the analysis were conducted using GraphPad Prism software. p<0.05 was considered to be statistically significant.
# [2] = system: xBT474 breast tumor; assay: xBT474 breast tumor model (ER-negative/HER2-positive); conditions: Group 2: Fulvestrant 1 mg/dose SC QW*28 days
# [3] = system: MCF-7 tumors; format: in vivo; conditions: 1/3/5 mg/dose SC QW, PG-D49
# Method: The in vivo anti-tumor efficacy of the compound of formula (I) either alone or in combination with fulvestrant on MCF-7 breast tumor model on female Balb/c nude mice was evaluated. The protocol was he same as described in Example 1 with the exception that the dosing schedule of fulvestrant was modified.
# [4] = system: xMDA-MB-361 breast tumor; assay: xMDA-MB-361 breast tumor model (ER-positive/HER2-positive); format: in vivo, female BALB/c nude mice; conditions: Group 2: Fulvestrant 1 mg/dose SC QW*42 days
# Method: Trastuzumab, tucatinib, Compound (I), and fulvestrant were tested in a xMDA-MB-361 breast tumor model (ER-positive/HER2-positive) on female BALB/c nude mice.
smiles,measurement,setting,value
"C[C@]12CC[C@@H]3c4ccc(O)cc4C[C@@H](CCCCCCCCC[S+]([O-])CCCC(F)(F)C(F)(F)F)[C@H]3[C@@H]1CC[C@@H]2O (stereo partly shown) [Fulvestrant, reference compound]",T/C,[1]; 1 mg/dose QW,42.68%
same,TGI,[1]; 1 mg/dose QW,62.74%
same,Tumor volume (mean ± SEM),"[1]; 1 mg/dose SC QW, day 0",173 ± 12 mm^3
same,Tumor volume (mean ± SEM),"[1]; 1 mg/dose SC QW, day 3",206 ± 10 mm^3
same,Tumor volume (mean ± SEM),"[1]; 1 mg/dose SC QW, day 6",272 ± 20 mm^3
same,Tumor volume (mean ± SEM),"[1]; 1 mg/dose SC QW, day 9",315 ± 33 mm^3
same,Tumor volume (mean ± SEM),"[1]; 1 mg/dose SC QW, day 13",389 ± 50 mm^3
same,Tumor volume (mean ± SEM),"[1]; 1 mg/dose SC QW, day 16",472 ± 47 mm^3
same,Tumor volume (mean ± SEM),"[1]; 1 mg/dose SC QW, day 20",595 ± 87 mm^3
same,Tumor volume (mean ± SEM),"[1]; 1 mg/dose SC QW, day 23",623 ± 93 mm^3
same,Tumor volume (mean ± SEM),"[1]; 1 mg/dose SC QW, day 27",697 ± 104 mm^3
same,Tumor volume (mean ± SEM),"[1]; 1 mg/dose SC QW, day 30",727 ± 116 mm^3
same,Tumor volume (mean ± SEM),"[1]; 1 mg/dose SC QW, day 34",829 ± 130 mm^3
same,Tumor volume (mean ± SEM),"[1]; 1 mg/dose SC QW, day 37",856 ± 140 mm^3
same,Tumor volume (mean ± SEM),"[1]; 1 mg/dose SC QW, day 41",859 ± 142 mm^3
same,Tumor volume (mean ± SEM),"[1]; 1 mg/dose SC QW, day 44",808 ± 164 mm^3
same,Tumor volume (mean ± SEM),"[1]; 1 mg/dose SC QW, day 48",623 ± 104 mm^3
same,T/C,[1]; 3 mg/dose QW,15.70%
same,TGI,[1]; 3 mg/dose QW,92.26%
same,Tumor volume (mean ± SEM),"[1]; 3 mg/dose SC QW, day 0",173 ± 13 mm^3
same,Tumor volume (mean ± SEM),"[1]; 3 mg/dose SC QW, day 3",181 ± 9 mm^3
same,Tumor volume (mean ± SEM),"[1]; 3 mg/dose SC QW, day 6",205 ± 16 mm^3
same,Tumor volume (mean ± SEM),"[1]; 3 mg/dose SC QW, day 9",240 ± 12 mm^3
same,Tumor volume (mean ± SEM),"[1]; 3 mg/dose SC QW, day 13",310 ± 25 mm^3
same,Tumor volume (mean ± SEM),"[1]; 3 mg/dose SC QW, day 16",337 ± 33 mm^3
same,Tumor volume (mean ± SEM),"[1]; 3 mg/dose SC QW, day 20",285 ± 32 mm^3
same,Tumor volume (mean ± SEM),"[1]; 3 mg/dose SC QW, day 23",288 ± 44 mm^3
same,Tumor volume (mean ± SEM),"[1]; 3 mg/dose SC QW, day 27",275 ± 35 mm^3
same,Tumor volume (mean ± SEM),"[1]; 3 mg/dose SC QW, day 30",294 ± 35 mm^3
same,Tumor volume (mean ± SEM),"[1]; 3 mg/dose SC QW, day 34",314 ± 48 mm^3
same,Tumor volume (mean ± SEM),"[1]; 3 mg/dose SC QW, day 37",315 ± 50 mm^3
same,Tumor volume (mean ± SEM),"[1]; 3 mg/dose SC QW, day 41",329 ± 54 mm^3
same,Tumor volume (mean ± SEM),"[1]; 3 mg/dose SC QW, day 44",294 ± 48 mm^3
same,Tumor volume (mean ± SEM),"[1]; 3 mg/dose SC QW, day 48",228 ± 29 mm^3
same,Tumor volume (mean ± SEM),[2]; Day 0,146 ± 10 mm^3
same,Tumor volume (mean ± SEM),[2]; Day 4,188 ± 26 mm^3
same,Tumor volume (mean ± SEM),[2]; Day 7,187 ± 14 mm^3
same,Tumor volume (mean ± SEM),[2]; Day 11,311 ± 55 mm^3
same,Tumor volume (mean ± SEM),[2]; Day 14,391 ± 55 mm^3
same,Tumor volume (mean ± SEM),[2]; Day 18,468 ± 69 mm^3
same,Tumor volume (mean ± SEM),[2]; Day 21,532 ± 79 mm^3
same,Tumor volume (mean ± SEM),[2]; Day 25,617 ± 93 mm^3
same,Tumor volume (mean ± SEM),[2]; Day 28,741 ± 113 mm^3
same,Tumor volume (mean ± SEM),[2]; Day 32,750 ± 115 mm^3
same,Tumor volume (mean ± SEM),[2]; Day 35,797 ± 121 mm^3
same,Tumor volume (mean ± SEM),[2]; Day 39,800 ± 131 mm^3
same,Tumor volume (mean ± SEM),[2]; Day 42,843 ± 146 mm^3
same,Tumor volume (mean ± SEM),[2]; Day 46,816 ± 138 mm^3
same,T/C,[3],38.19%
same,TGI,[3],71.50%
same,Tumor Size,[3],451 mm^3
same,Tumor volume (mean ± SEM),[4]; Day 0,157 ± 13 mm^3
same,Tumor volume (mean ± SEM),[4]; Day 3,185 ± 11 mm^3
same,Tumor volume (mean ± SEM),[4]; Day 7,226 ± 28 mm^3
same,Tumor volume (mean ± SEM),[4]; Day 10,321 ± 53 mm^3
same,Tumor volume (mean ± SEM),[4]; Day 14,489 ± 101 mm^3
same,Tumor volume (mean ± SEM),[4]; Day 17,588 ± 153 mm^3
same,Tumor volume (mean ± SEM),[4]; Day 21,773 ± 204 mm^3
same,Tumor volume (mean ± SEM),[4]; Day 24,890 ± 235 mm^3
same,Tumor volume (mean ± SEM),[4]; Day 28,1022 ± 256 mm^3
same,Tumor volume (mean ± SEM),[4]; Day 31,1113 ± 293 mm^3
same,Tumor volume (mean ± SEM),[4]; Day 35,1192 ± 330 mm^3
same,Tumor volume (mean ± SEM),[4]; Day 38,1300 ± 344 mm^3
same,Tumor volume (mean ± SEM),[4]; Day 42,1396 ± 356 mm^3
